Laboratory results reported in patent US10329542B2, “HBV RNAse H purification and enzyme inhibitors” (Saint Louis University, priority 2012, dated 2019).
Like-named read-outs stand apart in the source and are kept apart here.

Legend:
HBV = HBV genomic replication assays (Table 2); type: cell-based, Hepatitis B virus; details: class by active concentration
Procedure, shortened: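 Huh7 cells transfected with HBV plasmid received compound at 10 or 50 μM, refreshed every 1-2 days. Core-particle DNA isolated 4-5 days post-transfection was analysed by Southern blot, with or without RNaseH. For the screen, replicating cells got 60, 20 or 6.7 μM, refreshed days 1-2, and plus-strand DNA was quantified on day 3 by cross-gap TaqMan PCR.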

[1] = target: T1, HBV genotype D RNAseH (HRHPL) (Hepatitis B virus genotype D subtype ayw, UniProt P03156, INS679M); assay: Oligonucleotide-directed RNAseH cleavage assay, HBV genotype D; type: biochemical; details: for Residual activity at 10 uM, Genotype D: ± standard deviation, 3 to 7 replicates; for Activity vs. HBV Biochemical vs. gtD: class by concentration giving inhibition (10, 20, 60 μM); for Residual activity at 10 uM, Genotype D / Inhibition of HBV genotype D RNAseH: 10 μM; for remaining activity at 10 µM: read-out: Residual activity at 10 uM, Genotype D; for IC50: read-out: IC50 against HBV genotype D RNAseH
T1 construct: HRHPL contains HBV genotype D (Genbank V01460) polymerase residues 684-845; made in house; host or cells: E. coli BL21 codon+

HBV genotype H RNAseH = assay: Oligonucleotide-directed RNAseH cleavage assay, HBV genotype H; type: biochemical, Hepatitis B virus; details: for Residual activity at 10 uM, Genotype H: ± standard deviation, 3 to 7 replicates; for Residual activity at 10 uM, Genotype H / Inhibition of HBV genotype H RNAseH: 10 μM; for Inhibition of HBV genotype H RNAseH: below threshold of irrelevant controls
Protocol: (§1) For the oligonucleotide-directed RNAseH cleavage assay (Gong et al., 2001), 6 μl protein extract (typical protein concentration 2.8 mg/ml) was mixed with 0.5 μg internally ^32P-labeled DRF+ RNA (nucleotides 2401-2605 of the duck HBV genome plus 60 nucleotides of flanking sequences from pBluescript) and 3 μg oligonucleotide D2507- or its corresponding negative control D2526+ on ice in 20 μl under the conditions in Table 1. Some reactions in FIG. 5 employed oligonucleotide D2543M-Sal or its D2453+ negative control as indicated. The reactions were incubated at 42° C. for 90 min. and terminated by addition of Laemmli protein loading buffer and boiling. The samples were resolved by 12% SDS-PAGE, the gels were stained with Coomassie blue to monitor protein loading, and labeled RNA was detected by autoradiography. Candidate inhibitors were dissolved in DMSO and added at the indicated concentrations during assembly of the reactions. Control reactions lacking the compounds contained DMSO as a vehicle control. The RNAseH autoradiograms were scanned and quantified with ImageJ. The oligonucleotides were: D2526+([…]; SEQ ID NO:8), D2507-([…]; SEQ ID NO:9), D2453+([…]; SEQ ID NO:10), and D2543M-Sal ([…]; SEQ ID NO:11).
Oligonucleotide-directed RNAseH cleavage assays (Gong et al., 2001) were performed as described (Tavis et al., 2013). Briefly, HBV RNAseH extracts were mixed with a 264 nt-long internally ^32P-labeled RNA plus an excess of a complementary DNA oligonucleotide or its inverse-complement as a negative control in a final concentration of 65 mM Tris pH 8.0, 190 mM NaCl, 5 mM MgCl2, 5 mM dTT, 0.05% NP40, and 6% glycerol. βTJ was dissolved in DMSO and added at the indicated concentrations; the final concentration of DMSO in all reactions was 1%. The reactions were incubated at 42° C. for 90 min. and terminated by addition of Laemmli protein electrophoresis buffer. The samples were resolved by SDS-PAGE, labeled RNA was detected by autoradiography, the autoradiograms were scanned, and the RNA cleavage products were quantified with ImageJ (National Institutes of Health). IC50 values were calculated by non-linear regression using GraphPad Prism (GraphPad Software, Inc.).

[2] = target: T2, chimeric HBV:HIV RNAseH HHC1 (Hepatitis B virus genotype D subtype ayw, UniProt P03156, DELINS787-795[…]/INS679M); assay: Oligonucleotide-directed RNAseH cleavage assay, chimeric HHC1; type: biochemical; details: 10 μM; ± standard deviation, 3 to 7 replicates
T2 construct: HHC1 is an HRHPL derivative; made in house; host or cells: E. coli BL21 codon+
Text: pCMV-HBV-LE-(CMV-HBV) is an HBV over-length genomic expression vector containing 1.2 copies of the HBV(adw2) genome (Genbank X02763.1) downstream of the CMV promoter cloned into pBS (Promega). Surface protein expression from this vector is ablated by mutating the preS and S open reading frames. pCMV-HBV(genotype D) is an analogous HBV genomic expression construct and was a gift from Dr. Shuping Tong (Brown University). For bacterial expression, codon-optimized cDNA sequences for HRHPL (genotypes A, B, C, D, and H), and noncodon-optimized sequences for HHC1 and HHC2 were cloned by gene synthesis (Genscript) between the NcoI and EcoRI sites into pTrcHis2B (Invitrogen) with a C-terminal hexahistidine tag. HRHPL contains HBV genotype D (Genbank V01460) polymerase residues 684-845. HHC1 is an HRHPL derivative in which HBV polymerase residues 800-808 were replaced with HIV residues corresponding to the RNAseH helix D ([…]; SEQ ID NO:6). HHC2 is an HRHPL derivative in which HBV polymerase residues 800-845 were replaced with HIV residues corresponding to the RNAseH helix D to the C-terminus ([…]; SEQ ID NO:7). The human RNAseH1 gene (NP_002927.2) was cloned with an N-terminal hexahistidine-tag between the BamHI and XhoI sites of pRsetB (Invitrogen) by gene synthesis.
as §1

T1 sequence (P03156 680-832, added parts left off, stated change not applied): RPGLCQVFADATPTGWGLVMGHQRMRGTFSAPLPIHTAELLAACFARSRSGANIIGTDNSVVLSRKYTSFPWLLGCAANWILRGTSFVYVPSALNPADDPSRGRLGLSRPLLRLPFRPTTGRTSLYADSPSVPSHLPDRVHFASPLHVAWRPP
T2 sequence (P03156 680-786, added parts left off, stated change not applied): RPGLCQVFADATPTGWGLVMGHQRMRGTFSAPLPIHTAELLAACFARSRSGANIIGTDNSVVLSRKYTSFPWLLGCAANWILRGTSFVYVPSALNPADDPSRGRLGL

Compound | Activity vs. HBV Genomic Replication (HBV) | Residual activity at 10 uM, Genotype D [1] [Percent DMSO control] | Inhibition ([1]; below 5 μM) | Inhibition ([1]; between 10 and 30 μM) | Activity vs. HBV Biochemical vs. gtD [1] | Residual activity at 10 uM, Genotype H (HBV genotype H RNAseH) [Percent DMSO control] | Residual activity at 10 uM, HHC1 [2] [Percent DMSO control] | Inhibition of HBV genotype D RNAseH [1] | remaining activity at 10 µM [1] [%] | IC50 [1] [µM] | Inhibition of HBV genotype H RNAseH (HBV genotype H RNAseH) | Difference between IC50 against HIV-1 RNAseH and HBV RNAseH [1] [fold] | IC50 ([1]; listed as β-thujaplicinol) [µM] | IC50 ([1]; listed as βTJ) [µM] | IC50 (HBV genotype H RNAseH; read-out: IC50 against HBV genotype H RNAseH) [µM]
Cc1c2cc(O)c(=O)cc-2oc2cc(O)c(O)cc12 [Compound 8] | − (− no activity at 60 μM) | 33 ± 17 | ineffective | 40-85% | ++ (++ inhibition at 20 μM) | 74 ± 21 | 55 ± 18 |  |  |  |  |  |  |  | 
COc1cc2c(cc1Cc1cccc(Cl)c1F)c(=O)c(C(=O)O)cn2[C@H](CO)C(C)C [Compound 10, Elvitegravir, reference compound] | − (− no activity at 60 μM) |  |  |  | ++ (++ inhibition at 20 μM) | 66 ± 21 |  | inhibited the HBV RNAseH | 30 ± 8 |  |  |  |  |  | 
Cc1nnc(C(=O)NC(C)(C)c2nc(C(=O)NCc3ccc(F)cc3)c(O)c(=O)n2C)o1 [Compound 11, Raltegravir, reference compound] | − (− no activity at 60 μM) |  |  |  | ++ (++ inhibition at 20 μM) | 63 ± 21 |  | inhibited the HBV RNAseH | 29 ± 18 |  |  |  |  |  | 
NCc1ccc(-c2ccc(Cc3cc(=O)n(O)c4ncccc34)cc2)cc1 [Compound 12, napthyridinone] | ++ (++, clear activity at <10 μM) | 28 ± 12 |  |  | +++ (+++ inhibition at 10 μM) | 17 ± 6 | 32 ± 8 |  |  | 2.5 | inhibited |  |  |  | 
COc1ccc2ccccc2c1C=NNC(=O)c1cc(O)c(O)c(O)c1 [Compound 14] | − (− no activity at 60 μM) | 46 ± 20 |  |  | − (− no inhibition at 60 μM) | 27 ± 13 | 72 ± 2 |  |  |  | inhibited |  |  |  | 
CCOc1ccc(-c2c3cc(O)c(=O)cc-3oc3cc(O)c(O)cc23)cc1 [Compound 30] | + (+, activity detectable at >10 μM) | 23 ± 6 |  |  | +++ (+++ inhibition at 10 μM) | 37 ± 8 | 58 ± 12 |  |  |  |  |  |  |  | 
Cc1cc(=O)oc2cc(O)c(O)cc12 [Compound 34] | − (− no activity at 60 μM) | 30 ± 15 |  |  | ++ (++ inhibition at 20 μM) | 33 ± 12 | 39 ± 4 |  |  |  | inhibited |  |  |  | 
[N-]=[N+]=NCc1cccc(C(=O)CC(=O)C(=O)O)c1 [Compound 40] | − (− no activity at 60 μM) | 21 ± 16 |  |  | +++ (+++ inhibition at 10 μM) | 22 ± 2 | 44 ± 10 |  |  |  | inhibited |  |  |  | 
CC(C)c1ccc(O)c(=O)c(O)c1 [Compound 46, beta-thujaplicinol] | ++ (++, clear activity at <10 μM) |  |  |  | +++ (+++ inhibition at 10 μM) |  |  |  |  |  |  | ~10 | 6 | 5.9 ± 0.7 | 2.3 ± 1.7
